Results on 12 compounds are retold here after US11584745B2, “Aromatic heterocyclic compound, intermediate thereof, preparation method therefor, and pharmaceutical composition and use thereof” (SHANGHAI YINGLI PHARMACEUTICAL CO., LTD, priority 2018, dated 2023).

Structures are written as SMILES.

One may read the IC50 as the point on the concentration scale where inhibition reaches its midpoint.

For this assay, the target named is ALK5 (Homo sapiens (Human), UniProt P36897). Description: Evaluation experiment of ALK5 enzyme activity inhibition IC50 (ADP-Glo kinase assay). It is filed as biochemical. Conditions: 25 nM ALK5, 0.1 mg/mL peptide TGFbR1, 7 μM ATP, 30° C. 1 hour, ADP-Glo luminescence. As to the method: 1×kinase buffer preparation: 40 mM Tris (pH 7.5), 20 mM MgCl2, 0.10% BSA, 1 mM DTT.
Sequence of ALK5 (P36897 34-503): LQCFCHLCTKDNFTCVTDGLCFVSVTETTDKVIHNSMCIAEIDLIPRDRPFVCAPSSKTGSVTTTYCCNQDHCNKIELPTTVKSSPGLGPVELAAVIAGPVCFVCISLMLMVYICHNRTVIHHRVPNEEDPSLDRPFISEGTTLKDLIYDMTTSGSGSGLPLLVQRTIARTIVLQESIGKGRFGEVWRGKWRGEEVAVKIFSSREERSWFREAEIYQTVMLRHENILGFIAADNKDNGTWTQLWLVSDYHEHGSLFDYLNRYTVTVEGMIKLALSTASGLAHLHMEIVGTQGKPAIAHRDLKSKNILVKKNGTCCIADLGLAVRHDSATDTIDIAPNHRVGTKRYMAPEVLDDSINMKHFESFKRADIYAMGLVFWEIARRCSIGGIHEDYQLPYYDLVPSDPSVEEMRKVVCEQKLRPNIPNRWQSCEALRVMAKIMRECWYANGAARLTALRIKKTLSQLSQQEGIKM
Compound preparation: The final detection concentration of the compound was 10 μM, which was configurated to a 100-fold concentration, i.e., 1 mM. In the second well of the 384-well plate, 100 μL of 100-fold compound was added, and 60 μL of 100% DMSO was added to other wells. 30 μL of compound from the second well was taken and added to the third well, and a 3-fold dilution was made in sequence, a total of 10 concentrations were diluted. 50 nL of compound was transferred to the reaction plate with echo.
Kinase reaction: Kinase was added to 1×kinase buffer to form a 2×enzyme solution. […] The polypeptide TGFbR1 (purchased from Signal Chem, catalog number T36-58) and ATP were added to 1×kinase buffer to form a 2×substrate solution. The final concentration of the substrate solution was 0.1 mg/mL peptide TGFbR1, 7 μM ATP. 2.5 μL of 2×enzyme solution was added to the 384-well reaction plate (there was already 50 nL of 100% DMSO dissolved compound), and 1×kinase buffer was added to the negative control well. The plate was incubated at room temperature for 10 minutes. 2.5 μL of 2× substrate solution was added to the 384-well reaction plate. The 384-well plate was covered and incubated at 30° C. for 1 hour. ADP-Glo reagent (purchased from Promege, catalog number v9102) was equilibrated to room temperature. 5 μL of ADP-Glo reagent was transferred to the reaction well of the 384-well plate to stop the reaction.
Detection of reaction results: 10 μL of kinase detection reagent was transferred to each reaction well, the plate was shaken for 1 minute and placed at room temperature for 30 minutes. The sample luminescence value was read at Synegy.
Curve fitting: The data of the luminescence reading from the Synegy program were copied. The value of the luminescence reading was converted into the percentage of inhibition by a formula (inhibition percent=(max-sample RLU)/(max-min)*100, wherein “min” was a […] reading of the control sample without enzyme; “max” was the […] reading of sample with DMSO as a control). The data were imported into MS Excel and GraphPad Prism was used for curve fitting. The ICso value was calculated.
Background: ADP-Glo first removes unused ATP, then detects ADP through luciferase.

On to `Cc1cccc(-c2cccnc2-c2ccc3ncc(C(N)=O)n3c2)n1` [Compound 19], for which inhibition was half-maximal at 75 nM (IC50).

`Cc1cccc(-c2cc3ccccc3n2-c2ccc3ncc(C(N)=O)n3c2)n1` [Compound 25] registered an IC50 of 14 nM.

For the compound `CNC(=O)c1cnc2ccc(-c3ncccc3-c3cccc(C)n3)cn12` [Compound 20], 76 nM corresponded to half-maximal inhibition (IC50).

In the case of `Cc1cccc(-c2ccsc2-c2ccc3ncc(C(N)=O)n3c2)n1` [Compound 17], the half-inhibitory concentration (IC50) turned out to be 5.2 nM.

Compound `Cc1cccc(-n2cccc2-c2ccc3ncc(C(=O)N(C)C)n3c2)n1` [Compound 5] had an IC50 of 105 nM.

For the compound `Cc1cccc(-c2cccn2-c2ccc3ncc(C(N)=O)n3c2)n1` [Compound 1], the IC50 amounted to 13 nM.

`Cc1cccc(-c2cncn2-c2ccc3ncc(C(N)=O)n3c2)n1` [Compound 9]: half-maximal inhibition (IC50) was put at 136 nM. This IC50 is about 10-fold higher than that of the compound before.

`Cc1cccc(-c2cnsc2-c2ccc3nccn3c2)n1` [Compound 16] showed an IC50 of 165 nM.

Turning to `Cc1cccc(-c2cc(C)sc2-c2ccc3ncc(C(N)=O)n3c2)n1` [Compound 18], the IC50 worked out at 9.4 nM. Compared with the last compound, the IC50 is about 18-fold lower.

In the case of `Cc1csc(-c2ncccc2-c2ccc3ncc(C(N)=O)n3c2)n1` [Compound 23], the concentration for half-maximal inhibition (IC50) stood at 21 nM.

Regarding `Cc1cccc(-c2nccn2-c2ccc3ncc(C(N)=O)n3c2)n1` [Compound 8], the IC50 turned out to be 7 nM.

`Cc1cccc(-n2cccc2-c2ccc3ncc(C(N)=O)n3c2)n1` [Compound 4] gave a half-inhibitory concentration (IC50) of 19 nM.
